Experimental findings from BindingDB's records for doi:10.1016/j.ejmech.2017.11.048 (University of New Mexico, 2018) are described below.

As a reminder, the EC50 is the concentration that produces a half-maximal response. Read a low EC50 as higher potency in that assay.

For the assay, the target named is T1, Nuclear factor erythroid 2-related factor 2 (Homo sapiens, UniProt Q16236).
T1 sequence (Q16236 whole entry): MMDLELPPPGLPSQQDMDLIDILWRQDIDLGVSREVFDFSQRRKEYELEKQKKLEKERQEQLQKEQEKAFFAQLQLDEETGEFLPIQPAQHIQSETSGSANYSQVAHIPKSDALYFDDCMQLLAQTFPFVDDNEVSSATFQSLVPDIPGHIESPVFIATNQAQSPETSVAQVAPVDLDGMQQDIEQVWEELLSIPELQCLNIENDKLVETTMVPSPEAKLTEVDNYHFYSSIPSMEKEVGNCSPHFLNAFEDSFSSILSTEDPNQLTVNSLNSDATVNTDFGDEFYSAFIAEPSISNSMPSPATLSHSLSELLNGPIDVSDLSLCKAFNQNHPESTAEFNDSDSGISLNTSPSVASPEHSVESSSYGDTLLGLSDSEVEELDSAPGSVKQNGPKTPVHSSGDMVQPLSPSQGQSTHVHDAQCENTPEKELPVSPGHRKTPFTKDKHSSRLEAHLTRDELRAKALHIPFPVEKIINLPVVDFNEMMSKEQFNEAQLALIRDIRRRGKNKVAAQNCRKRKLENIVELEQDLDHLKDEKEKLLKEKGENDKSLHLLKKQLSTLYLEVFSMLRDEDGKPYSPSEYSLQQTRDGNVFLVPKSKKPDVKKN
The experiment in a line: Activation of Nrf2 (unknown origin) expressed in human HepG2 cells after 5 hrs by ARE-driven luciferase reporter gene assay. In general terms: A reporter such as luciferase makes a cellular process visible.
`Cc1ccc(C(=O)/C=C/c2ccccc2)c(C)c1`: the EC50 came out at 21.1 µM.
Turning to `COc1cc(/C=C2\CCC/C(=C\c3cc(OC)cc(OC)c3)C2=O)cc(OC)c1`, the EC50 is 5.3 µM.
For `COc1cc(/C=C/C(=O)/C=C/c2ccc(O)c(OC)c2)ccc1O` [(1E,4E)-1,5-Bis-(4-hydroxy-3-methoxy-phenyl)-penta-1,4-dien-3-one] the value was 9.9 µM; for `COc1cc(/C=C/C(=O)CC(=O)/C=C/c2ccc(O)c(OC)c2)ccc1O` [CHEBI:3962], 21 µM; for `COc1cc(OC)c(OC)cc1/C=C/C(=O)/C=C/c1cc(OC)c(OC)cc1OC` [Go-Y021], 1.32 µM.
For `O=C(/C=C/c1ccccc1O)/C=C/c1ccccc1O` [US9187397, 20q] the value was 3.3 µM.
